Data published in US20250034136A1 (Nimbus Wadjet, Inc., priority 2023, published 2025).
Read-outs that look alike come from different tables or passages of the source.

Columns and labels:
[1] = molecular target: WRN (BV08), human Werner helicase (Uniprot Q14191, amino acids 517-1235 with L1074F point mutation) (Homo sapiens (Human), UniProt Q14191, L1074F); experiment: WRN (BV08) ADP-Glo assay; type: biochemical; settings: class symbols A-E, read-out: ADP-Glo_hWRN_IC50
Method: Bovine skin gelatin (BSG), dimethyl sulfoxide (DMSO), Pluronic F-127 and tris(2-carboxyethyl)phosphine hydrochloride solution (TCEP) were purchased from Sigma-Aldrich (St. Louis, MO) at the highest level of purity possible. […] DNA strands were annealed by heating to 95° C. for 5 minutes followed by slow cooling to room temperature. Compounds in 100% DMSO (0.1 μl) were spotted into a 384-well white polystyrene Optiplate-384 (Perkin Elmer; Waltham, MA) assay plate using a LabCyte Echo 550 (Agilent; Santa Clara, CA). DMSO (0.1 μl) was added to columns 12, rows A-H and column 24, rows I-P for the maximum signal control. […] Compounds/DMSO were preincubated for 15 minutes at 25° C. with 5 μl 2×WRN (BV08), prepared as described below, in assay buffer containing 20 mM Bicine (pH=7.5), 1 mM MgCl2, 10 mM KCl, 0.1% Pluronic F-127, 0.005% BSG, 1 mM TCEP. The reaction was initiated by the addition of 5 μl 2× substrate mixture in assay buffer and incubated for 60 minutes at 25° C. The final concentrations of the assay components were 0.15 nM WRN, 5 μM ATP, and 0.1 nM DNA duplex. The final DMSO concentration was 1% and the reference compound concentration (NSC-617145) used for the minimal signal control was 20 μM. The reaction was stopped by the addition of the ADP-Glo Kit components (Promega; Madison, WI) as directed and the relative luminescence units (RLU) were read on an Envision 2104 (Perkin Elmer; Waltham, MA). % inhibition calculation:
[formula] • Where RLU=relative luminescence units, sample=signal in sample well, and MIN and MAX are the respective minimum and maximum signal controls.
[formula] • Where top and bottom are normally allowed to float but may be fixed at 100 or 0 respectively in a 3-parameter fit. Y is the % inhibition and X is the compound concentration.
Molecular Biology and virus production. […] The baculovirus from the expression plasmid WRN—BV08 was generated from transfection and amplification following the manufacturer's instructions.
Sf9 cells grown in SF900II media were infected with 1:200 WRN—BV08 P2 virus and incubated for protein expression for 72 h at 27° C. The WRN protein was purified using the following protocol. The cell pellets were thawed and resuspended in buffer A (50 mM Tris, pH 7.5, 500 mM NaCl, 1 mM TCEP, 10% Glycerol) supplemented with 0.5% CHAPS, 1 mM PMSF, 1 μg/ml Leupeptin, 1 μg/ml Pepstatin, and the Pierce Universal Nuclease and cocktail tablet. Cleared lysates were loaded onto a Ni Sepharose™ excel column and washed with buffer A and bound protein was eluted with buffer A supplemented with 300 mM imidazole. The eluted protein was dialyzed against buffer A and digested by His-tagged TEV (1:5 ratio) overnight at 4° C. ZnCl2 was added into the sample at final 15 μM before loading onto a second Ni Sepharose™ excel column. Untagged WRN protein was eluted from the column with buffer A supplemented with 20 mM imidazole, dialyzed overnight into buffer B (50 mM Tris, pH 7.5, 1 mM TCEP, 10% Glycerol) supplemented with 150 mM NaCl and loaded onto a Heparin column. Proteins were eluted with a step gradient of buffer B supplemented with 150 mM, 200 mM, 300 mM and 500 mM NaCl. WRN containing fractions were pooled and concentrated prior to loading on to size exclusion chromatography using a HiLoad 16/600 Superdex™ 200 pg column (GE Healthcare) in buffer C (20 mM HTEPES, pH 7.5, 250 mM NaCl, 0.25 mM TCEP, […]).

[2] = test system: p21 induction in HCT116 cells; experiment: p21 induction in HCT116 cells; type: cell-based; settings: HCT116 cells, 24 h compound incubation, read-out: P21_EC50
Method: The colon carcinoma cell line HCT116 was obtained from ATCC and cultured in growth medium consisting of Mccoy's 5A Medium (Gibco 16600108) supplemented with 10% FBS (Transgene FS201-02) and 100 units/mL penicillin-streptomycin (Gibco 15140122) and maintained at 37° C. under 5% CO2. On the day of seeding, 2,000 cells in 30 μL of culture media were plated per well to Poly-D-Lysine 384 Well Black Clear Plates (Biocoat 356663) and incubated overnight at 37° C. under 5% CO2. The following day, compounds were serially diluted in DMSO for a total of 11 test concentrations. […] Next, 150 nL of diluted compound was added in duplicate to the assay plate, using an Echo 655 (Labcyte). The plate was centrifuged at 500 RPM for 1 min and then incubated at 37° C. under 5% CO2 for 24 h. After 24 h, medium was removed, and cells were fixed by adding 40 μL of 4% paraformaldehyde solution to each well and incubated for 20 min at room temperature. The plate was then washed 4 times with 100 μL per well of wash buffer (PBS with 0.1% Tween-20) using a microplate washer. Next, 30 μL of ice-cold methanol was added to each well and the plate was incubated at −20° C. for 10 min. The plate was washed 4 times with 100 μL per well of wash buffer by a microplate washer, then 30 μL per well of blocking buffer (Intercept PBS blocking buffer (LI-COR 927-70001) with 0.05% Tween-20) was added and the plate was incubated at room temperature with shaking for 2 h. Next, to each test well, 20 μL of primary antibody solution (p21 Waf1/CIP (12D1) RabbitmAb (Cell Signaling Technologies 2947) diluted 1:1000 and GAPDH (D4C6R) Mouse mAb (Cell Signaling Technologies 97166) diluted 1:2000 in blocking buffer) was added and the plate was placed at 4° C., overnight. The following day, the plate was washed 5 times with 100 μL per well of wash buffer using a microplate washer for 5 min. 20 μL per well of secondary antibody (IRDye 680CW Goat anti-Mouse IgG (H+L) (LI-COR 926-68070) diluted 1: 2000 in Blocking Buffer and IRDye 800CW Goat anti-Rabbit IgG (H+L) (LI-COR 926-32211) diluted 1: 2000 in Blocking Buffer) was then added and the plate was stored for 2 h in the dark at room temperature with shaking. The plate was then washed 4 times with 100 μL per well of wash buffer again using a microplate washer. Finally, the p21 signal and the GAPDH signal were quantified using a LI-COR Odyssey CLx Imager machine reading at 800 nm and 700 nm, respectively. Each plate contained DMSO control (low control) and an internal reference WRN inhibitor (high control) respectively. […] EC50 values for each compound were generated after non-linear regression curve fitting using commercially available software.

WRN (BV08), human Werner helicase (Uniprot Q14191, amino acids 517-1235 with L1074F point mutation), sequence (Q14191 other isoform, or with tags, fused parts or gaps L1074F (already in the parent)): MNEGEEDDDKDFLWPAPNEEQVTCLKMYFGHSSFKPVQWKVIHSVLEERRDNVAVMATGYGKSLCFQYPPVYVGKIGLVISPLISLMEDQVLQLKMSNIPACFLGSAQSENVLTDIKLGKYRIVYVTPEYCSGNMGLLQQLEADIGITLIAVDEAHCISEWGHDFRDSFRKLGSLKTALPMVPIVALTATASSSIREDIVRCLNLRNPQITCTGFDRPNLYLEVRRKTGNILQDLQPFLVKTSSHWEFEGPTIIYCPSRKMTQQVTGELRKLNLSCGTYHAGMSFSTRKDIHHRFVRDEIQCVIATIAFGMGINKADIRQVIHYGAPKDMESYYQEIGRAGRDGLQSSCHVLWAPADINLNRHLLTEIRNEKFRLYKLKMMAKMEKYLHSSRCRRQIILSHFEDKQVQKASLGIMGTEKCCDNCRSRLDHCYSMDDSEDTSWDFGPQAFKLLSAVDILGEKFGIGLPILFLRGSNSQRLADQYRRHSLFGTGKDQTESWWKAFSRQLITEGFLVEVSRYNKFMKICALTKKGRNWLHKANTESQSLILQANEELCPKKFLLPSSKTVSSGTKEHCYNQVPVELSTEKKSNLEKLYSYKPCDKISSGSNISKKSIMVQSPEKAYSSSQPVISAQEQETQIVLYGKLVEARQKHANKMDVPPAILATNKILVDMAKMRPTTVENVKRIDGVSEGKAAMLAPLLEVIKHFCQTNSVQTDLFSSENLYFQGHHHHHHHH

With `CCc1c(N2CCN(C(=O)c3ncnc(C)c3O)[C@@H]3CC[C@H]32)c(=O)c2nc(N(C)C3CC3)cnc2n1CC(=O)Nc1ccc(C(F)(F)F)cc1Cl` (single isomer, unassigned) [I-119, N-(2-chloro-4-(trifluoromethyl)phenyl)-2-(2-(cyclopropyl(methyl)amino)-6-ethyl-7-(5-(5-hydroxy-6-methylpyrimidine-4-carbonyl)-2,5-diazabicyclo[4.2.0]octan-2-yl)-8-oxopyrido[2,3-b]pyrazin-5(8H)-yl)acetamide] as the compound, how does the IC50 [1] read?
Its IC50 is 5 to 50 nM.

And the EC50 ([2]; Homo sapiens, HCT-116, 24 h)?
The EC50 was less than 500 nM.

What does the source list for `CCc1c(N2CCN(C(=O)c3ncnc(C)c3O)[C@@H]3CC[C@H]32)c(=O)c2nc(N(C)C3CC3)cnc2n1CC(=O)Nc1ccc(C(F)(F)F)cc1Cl` (single isomer, unassigned) [I-169, N-[2-chloro-4-(trifluoromethyl)phenyl]-2-{2-[cyclopropyl(methyl)amino]-6-ethyl-7-[-5-(5-hydroxy-6-methylpyrimidine-4-carbonyl)-2,5-diazabicyclo[4.2.0]octan-2-yl]-8-oxo-5H,8H-pyrido[2,3-b]pyrazin-5-yl}acetamide]?
IC50 [1]: 5 to 50 nM; EC50 [2]: 500 to 2000 nM

`CCc1c(N2CCN(C(=O)c3ncnc(C)c3O)[C@H]3CC[C@@H]32)c(=O)c2nc(NC)cnc2n1CC(=O)Nc1ccc(C(F)(F)F)cc1Cl` (single isomer, unassigned) [I-171, N-(2-chloro-4-(trifluoromethyl)phenyl)-2-(6-ethyl-7-(5-(5-hydroxy-6-methylpyrimidine-4-carbonyl)-2,5-diazabicyclo[4.2.0]octan-2-yl)-2-(methylamino)-8-oxopyrido[2,3-b]pyrazin-5(8H)-yl)acetamide] was tested. Which IC50 [1] did it give?
The IC50 was 50 to 100 nM.

And the EC50 [2]?
Its EC50 is greater than 5000 nM.

Which IC50 [1] does the source give for `CCc1c(N2CCN(C(=O)c3ncnc(C)c3O)[C@@H]3CC[C@H]32)c(=O)c2nc(NC)cnc2n1CC(=O)Nc1ccc(C(F)(F)F)cc1Cl` (single isomer, unassigned) [I-172, N-(2-chloro-4-(trifluoromethyl)phenyl)-2-(6-ethyl-7-(5-(5-hydroxy-6-methylpyrimidine-4-carbonyl)-2,5-diazabicyclo[4.2.0]octan-2-yl)-2-(methylamino)-8-oxopyrido[2,3-b]pyrazin-5(8H)-yl)acetamide] here?
Its IC50 is no more than 5 nM.

What about the EC50 ([2]; Homo sapiens, HCT-116, 24 h) of the same compound?
Its EC50 is less than 500 nM.

Which IC50 [1] does the source give for `CCc1c(N2CCN(C(=O)c3ncnc(C)c3O)C[C@@H]2C)c(=O)c2nc(N3CC[C@H]4C[C@H]43)cnc2n1CC(=O)Nc1ccc(C(F)(F)F)cc1Cl` (single isomer, unassigned) [I-192] here?
The IC50 was no more than 5 nM.

What about the EC50 ([2]; Homo sapiens, HCT-116, 24 h) of the same compound?
The EC50 was less than 500 nM.

Which IC50 [1] does the source give for `CCc1c(N2CCN(C(=O)c3ncnc(C)c3O)[C@@H](C)[C@H]2C)c(=O)c2nc(N(C)C)cnc2n1CC(=O)Nc1ccc(C(F)(F)F)cc1Cl` (single isomer, unassigned) [I-196, N-(2-chloro-4-(trifluoromethyl)phenyl)-2-(2-(dimethylamino)-6-ethyl-7-(4-(5-hydroxy-6-methylpyrimidine-4-carbonyl)-2,3-dimethylpiperazin-1-yl)-8-oxopyrido[2,3-b]pyrazin-5(8H)-yl)acetamide] here?
The IC50 was 5 to 50 nM.

And the EC50 ([2]; Homo sapiens, HCT-116, 24 h)?
The EC50 was 500 to 2000 nM.

How did the IC50 [1] turn out when `CCc1c(N2CCN(C(=O)c3ncnc(C)c3O)[C@H]3CCC[C@H]32)c(=O)c2nc(N(C)C)cnc2n1CC(=O)Nc1ccc(C(F)(F)F)cc1Cl` (single isomer, unassigned) [I-208, N-(2-chloro-4-(trifluoromethyl)phenyl)-2-(2-(dimethylamino)-6-ethyl-7-(4-(5-hydroxy-6-methylpyrimidine-4-carbonyl)octahydro-1H-cyclopenta[b]pyrazin-1-yl)-8-oxopyrido[2,3-b]pyrazin-5(8H)-yl)acetamide] was run?
The IC50 was 100 to 500 nM.

What about the EC50 ([2]; Homo sapiens, HCT-116, 24 h) of the same compound?
The EC50 was greater than 5000 nM.

Which IC50 [1] does the source give for `CCc1c(N2CCN(C(=O)c3ncnc(C)c3O)[C@@H]3CCC[C@@H]32)c(=O)c2nc(N(C)C)cnc2n1CC(=O)Nc1ccc(C(F)(F)F)cc1Cl` (single isomer, unassigned) [I-209, N-(2-chloro-4-(trifluoromethyl)phenyl)-2-(2-(dimethylamino)-6-ethyl-7-(4-(5-hydroxy-6-methylpyrimidine-4-carbonyl)octahydro-1H-cyclopenta[b]pyrazin-1-yl)-8-oxopyrido[2,3-b]pyrazin-5(8H)-yl)acetamide] here?
The IC50 was 5 to 50 nM.

What about the EC50 ([2]; Homo sapiens, HCT-116, 24 h) of the same compound?
Its EC50 is less than 500 nM.

For `CCc1c(N2CCN(C(=O)c3ncnc(C)c3O)[C@H]3CC[C@@H]32)c(=O)c2nc(N3CC[C@H]4C[C@H]43)cnc2n1CC(=O)Nc1ccc(C(F)(F)F)cc1Cl` (single isomer, unassigned) [I-219], which IC50 [1] is on record?
The IC50 was no more than 5 nM.

And the EC50 ([2]; Homo sapiens, HCT-116, 24 h)?
Its EC50 is less than 500 nM.

With `CCc1c(N2CCN(C(=O)c3ncnc(C)c3O)[C@H]3CC[C@@H]32)c(=O)c2nc(N3CC[C@@H]4C[C@@H]43)cnc2n1CC(=O)Nc1ccc(C(F)(F)F)cc1Cl` (single isomer, unassigned) [I-220] as the compound, how does the IC50 [1] read?
Its IC50 is no more than 5 nM.

What about the EC50 ([2]; Homo sapiens, HCT-116, 24 h) of the same compound?
Its EC50 is less than 500 nM.

`CCc1c(N2CCN(C(=O)c3c(OC)ncc(C)c3O)C[C@@H]2C)c(=O)c2nc(N3CC[C@H]4C[C@H]43)cnc2n1CC(=O)Nc1ccc(C(F)(F)F)cc1Cl` (single isomer, unassigned) [I-231] was tested. Which IC50 [1] did it give?
Its IC50 is 5 to 50 nM.

And the EC50 ([2]; Homo sapiens, HCT-116, 24 h)?
The EC50 was less than 500 nM.

`CCc1c(N2CCN(C(=O)c3c(OC)ncc(C)c3O)C[C@@H]2C)c(=O)c2nc(N3CC[C@@H]4C[C@@H]43)cnc2n1CC(=O)Nc1ccc(C(F)(F)F)cc1Cl` (single isomer, unassigned) [I-232] was tested. Which IC50 [1] did it give?
Its IC50 is 5 to 50 nM.

And the EC50 ([2]; Homo sapiens, HCT-116, 24 h)?
Its EC50 is less than 500 nM.
